Data taken from ChEMBL document CHEMBL1201862, “PubChem BioAssay data set” (2004).
The source made the active and inactive calls.

How the values were obtained:
Type in all cases: functional
Caspase-3 = target: T1, Caspase-3 (Homo sapiens, UniProt P42574);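 also: Dose-response selectivity test against caspase-3 for candidate inhibitors of sentrin-specific proteases (SENPs)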
T1 sequence (P42574 whole entry): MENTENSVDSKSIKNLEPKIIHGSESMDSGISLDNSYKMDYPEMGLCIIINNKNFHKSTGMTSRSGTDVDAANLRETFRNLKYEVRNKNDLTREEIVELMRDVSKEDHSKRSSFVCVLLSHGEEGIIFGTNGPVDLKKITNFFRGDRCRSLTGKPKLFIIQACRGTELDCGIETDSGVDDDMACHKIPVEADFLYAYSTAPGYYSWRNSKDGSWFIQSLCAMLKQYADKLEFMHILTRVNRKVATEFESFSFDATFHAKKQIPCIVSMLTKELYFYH

[1] = target: T2, Sentrin-specific protease 7 (Homo sapiens, UniProt Q9BQF6);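 also: Luminescence-based dose-response confirmation of ultra-high-throughput screening hits, measuring inhibition of SENP7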
T2 sequence (Q9BQF6 whole entry): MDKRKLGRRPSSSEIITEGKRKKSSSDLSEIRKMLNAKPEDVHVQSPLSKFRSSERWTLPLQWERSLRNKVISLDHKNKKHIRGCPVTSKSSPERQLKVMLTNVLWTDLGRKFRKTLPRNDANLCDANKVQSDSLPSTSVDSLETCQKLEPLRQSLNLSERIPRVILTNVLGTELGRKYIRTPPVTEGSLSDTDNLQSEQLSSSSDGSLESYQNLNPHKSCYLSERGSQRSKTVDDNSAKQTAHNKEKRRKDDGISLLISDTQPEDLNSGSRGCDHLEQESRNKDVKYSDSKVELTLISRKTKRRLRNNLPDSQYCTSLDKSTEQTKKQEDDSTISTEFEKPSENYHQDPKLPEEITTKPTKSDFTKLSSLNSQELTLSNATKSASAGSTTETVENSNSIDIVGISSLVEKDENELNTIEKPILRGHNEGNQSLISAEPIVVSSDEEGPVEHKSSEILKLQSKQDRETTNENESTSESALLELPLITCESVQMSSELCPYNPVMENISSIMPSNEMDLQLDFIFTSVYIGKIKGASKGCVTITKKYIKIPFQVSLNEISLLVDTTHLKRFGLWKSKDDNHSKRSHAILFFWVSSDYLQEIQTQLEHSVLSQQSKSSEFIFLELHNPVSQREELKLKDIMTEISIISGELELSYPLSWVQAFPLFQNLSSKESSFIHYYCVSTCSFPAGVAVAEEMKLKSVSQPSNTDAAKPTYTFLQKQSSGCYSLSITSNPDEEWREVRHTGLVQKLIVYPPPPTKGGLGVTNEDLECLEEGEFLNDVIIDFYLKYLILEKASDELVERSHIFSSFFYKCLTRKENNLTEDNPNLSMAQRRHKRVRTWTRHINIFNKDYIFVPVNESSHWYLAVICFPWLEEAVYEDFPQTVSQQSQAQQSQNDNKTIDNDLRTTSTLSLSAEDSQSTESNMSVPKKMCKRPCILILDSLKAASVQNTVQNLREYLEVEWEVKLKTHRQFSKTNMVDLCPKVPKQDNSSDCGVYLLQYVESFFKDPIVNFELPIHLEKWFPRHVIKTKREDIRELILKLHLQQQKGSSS

Orexin receptor type 2 = target: T3, Orexin receptor type 2 (Homo sapiens, UniProt O43614); experiment: Counterscreen assay for antagonists of the orexin 1 receptor (OX1R; HCRTR1): Homogeneous Time Resolved Fluorescence (HTRF)-based cell-based dose response assay for antagonists of the orexin 2 receptor (OX2R; HCRTR2), run by assay provider.
T3 sequence (O43614 whole entry): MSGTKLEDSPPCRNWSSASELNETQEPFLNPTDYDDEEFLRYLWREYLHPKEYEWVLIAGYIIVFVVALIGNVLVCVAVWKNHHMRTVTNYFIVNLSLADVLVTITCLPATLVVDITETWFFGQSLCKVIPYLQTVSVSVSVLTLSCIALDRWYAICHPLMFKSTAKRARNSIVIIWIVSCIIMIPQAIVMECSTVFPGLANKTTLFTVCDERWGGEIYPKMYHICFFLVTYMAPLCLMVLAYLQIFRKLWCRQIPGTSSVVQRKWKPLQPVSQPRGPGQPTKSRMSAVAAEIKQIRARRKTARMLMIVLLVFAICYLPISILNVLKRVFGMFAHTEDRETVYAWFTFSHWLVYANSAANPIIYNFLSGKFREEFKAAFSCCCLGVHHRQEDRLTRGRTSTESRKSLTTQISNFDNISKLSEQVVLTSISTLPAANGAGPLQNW

CHO-K1 = experiment: Counterscreen for antagonists of the orexin 1 receptor (OX1R; HCRTR1): Homogeneous time resolved fluorescence (HTRF)-based cell-based dose response assay to identify antagonists of the parental CHO-K1 cell line. [Related pubchem assays (depositor defined):AID434989, AID435008, AID463079, AID485270, AID492963, AID492964, AID492965, AID493232, AID504699, AID504701]; settings: Cricetulus griseus;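 also: potency for inhibition of ATP-stimulated IP1 production as antagonists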
Aurora kinase A = target: T4, Aurora kinase A (Homo sapiens, UniProt O14965);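 also: value from the Navigating the Kinome kinase panel profiling, panel entry STK6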
T4 sequence (O14965 whole entry): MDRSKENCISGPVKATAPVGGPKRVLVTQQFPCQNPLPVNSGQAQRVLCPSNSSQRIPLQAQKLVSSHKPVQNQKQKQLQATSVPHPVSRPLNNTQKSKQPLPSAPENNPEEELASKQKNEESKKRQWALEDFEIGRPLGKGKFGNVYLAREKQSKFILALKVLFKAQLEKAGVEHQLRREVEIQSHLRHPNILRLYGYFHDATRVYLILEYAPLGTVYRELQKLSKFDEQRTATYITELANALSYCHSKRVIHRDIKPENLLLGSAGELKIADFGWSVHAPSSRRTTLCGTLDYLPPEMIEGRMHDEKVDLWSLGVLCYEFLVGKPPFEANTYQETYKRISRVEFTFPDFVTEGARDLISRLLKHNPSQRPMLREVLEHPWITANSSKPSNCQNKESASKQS

[2] = target: Platelet-derived growth factor receptor alpha (Homo sapiens, UniProt P16234); experiment: Navigating the Kinome. Panel member name: PDGFRA
Activated CDC42 kinase 1 = Activated CDC42 kinase 1 (Homo sapiens, UniProt Q07912); experiment: Navigating the Kinome. Panel member name: ACK1
Aurora kinase B = Aurora kinase B (Homo sapiens, UniProt Q96GD4)
[3] = target: Vascular endothelial growth factor receptor 1 (Homo sapiens, UniProt P17948);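 also: measured within a kinome-wide profiling panel, FLT1 as the panel member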
[4] = target: Mitogen-activated protein kinase 14 (Homo sapiens, UniProt Q16539);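 also: part of a kinome-wide panel, MAPK14 entry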
[5] = target: Mitogen-activated protein kinase 8 (Homo sapiens, UniProt P45983);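 also: value comes from one member of a kinome-wide kinase profiling panel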
[6] = target: Casein kinase I isoform alpha (Homo sapiens, UniProt P48729)
Chain of Casein kinase I isoform alpha (P48729 whole entry, canonical isoform): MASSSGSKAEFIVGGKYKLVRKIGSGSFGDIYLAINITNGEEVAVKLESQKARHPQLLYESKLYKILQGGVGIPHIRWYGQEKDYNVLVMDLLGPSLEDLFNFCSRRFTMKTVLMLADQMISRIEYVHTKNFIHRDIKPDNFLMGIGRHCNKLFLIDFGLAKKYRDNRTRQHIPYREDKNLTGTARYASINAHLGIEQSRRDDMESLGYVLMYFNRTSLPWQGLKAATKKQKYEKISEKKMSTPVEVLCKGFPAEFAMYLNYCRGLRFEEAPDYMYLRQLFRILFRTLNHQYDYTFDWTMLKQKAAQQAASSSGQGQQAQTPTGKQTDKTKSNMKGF

Chain of Platelet-derived growth factor receptor alpha (P16234 whole entry): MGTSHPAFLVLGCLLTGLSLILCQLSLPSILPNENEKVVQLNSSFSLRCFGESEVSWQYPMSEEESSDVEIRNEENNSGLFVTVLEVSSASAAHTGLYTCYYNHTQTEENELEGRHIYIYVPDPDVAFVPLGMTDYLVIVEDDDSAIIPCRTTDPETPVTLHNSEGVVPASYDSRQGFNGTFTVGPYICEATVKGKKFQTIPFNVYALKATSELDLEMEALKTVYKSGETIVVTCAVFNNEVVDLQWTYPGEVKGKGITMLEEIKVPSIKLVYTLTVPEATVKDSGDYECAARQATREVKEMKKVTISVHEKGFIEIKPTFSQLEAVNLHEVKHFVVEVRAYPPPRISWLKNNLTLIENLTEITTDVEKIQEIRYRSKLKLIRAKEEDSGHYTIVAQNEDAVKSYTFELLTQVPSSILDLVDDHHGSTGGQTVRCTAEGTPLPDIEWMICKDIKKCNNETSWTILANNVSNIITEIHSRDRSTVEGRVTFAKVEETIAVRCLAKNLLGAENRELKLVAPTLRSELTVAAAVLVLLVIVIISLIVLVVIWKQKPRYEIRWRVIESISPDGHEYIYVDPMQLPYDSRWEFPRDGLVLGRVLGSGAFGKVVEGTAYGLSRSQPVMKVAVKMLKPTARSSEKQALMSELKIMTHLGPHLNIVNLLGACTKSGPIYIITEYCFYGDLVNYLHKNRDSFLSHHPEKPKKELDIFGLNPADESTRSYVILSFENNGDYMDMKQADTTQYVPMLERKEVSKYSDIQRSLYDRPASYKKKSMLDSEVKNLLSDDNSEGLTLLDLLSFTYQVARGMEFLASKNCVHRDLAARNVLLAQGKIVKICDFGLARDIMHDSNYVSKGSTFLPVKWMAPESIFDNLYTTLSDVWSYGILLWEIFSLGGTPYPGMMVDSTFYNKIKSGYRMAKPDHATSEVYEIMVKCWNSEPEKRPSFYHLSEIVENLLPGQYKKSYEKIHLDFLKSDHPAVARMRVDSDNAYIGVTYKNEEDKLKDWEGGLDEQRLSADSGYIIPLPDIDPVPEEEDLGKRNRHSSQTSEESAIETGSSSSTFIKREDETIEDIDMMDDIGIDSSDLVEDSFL
Chain of Vascular endothelial growth factor receptor 1 (P17948 whole entry): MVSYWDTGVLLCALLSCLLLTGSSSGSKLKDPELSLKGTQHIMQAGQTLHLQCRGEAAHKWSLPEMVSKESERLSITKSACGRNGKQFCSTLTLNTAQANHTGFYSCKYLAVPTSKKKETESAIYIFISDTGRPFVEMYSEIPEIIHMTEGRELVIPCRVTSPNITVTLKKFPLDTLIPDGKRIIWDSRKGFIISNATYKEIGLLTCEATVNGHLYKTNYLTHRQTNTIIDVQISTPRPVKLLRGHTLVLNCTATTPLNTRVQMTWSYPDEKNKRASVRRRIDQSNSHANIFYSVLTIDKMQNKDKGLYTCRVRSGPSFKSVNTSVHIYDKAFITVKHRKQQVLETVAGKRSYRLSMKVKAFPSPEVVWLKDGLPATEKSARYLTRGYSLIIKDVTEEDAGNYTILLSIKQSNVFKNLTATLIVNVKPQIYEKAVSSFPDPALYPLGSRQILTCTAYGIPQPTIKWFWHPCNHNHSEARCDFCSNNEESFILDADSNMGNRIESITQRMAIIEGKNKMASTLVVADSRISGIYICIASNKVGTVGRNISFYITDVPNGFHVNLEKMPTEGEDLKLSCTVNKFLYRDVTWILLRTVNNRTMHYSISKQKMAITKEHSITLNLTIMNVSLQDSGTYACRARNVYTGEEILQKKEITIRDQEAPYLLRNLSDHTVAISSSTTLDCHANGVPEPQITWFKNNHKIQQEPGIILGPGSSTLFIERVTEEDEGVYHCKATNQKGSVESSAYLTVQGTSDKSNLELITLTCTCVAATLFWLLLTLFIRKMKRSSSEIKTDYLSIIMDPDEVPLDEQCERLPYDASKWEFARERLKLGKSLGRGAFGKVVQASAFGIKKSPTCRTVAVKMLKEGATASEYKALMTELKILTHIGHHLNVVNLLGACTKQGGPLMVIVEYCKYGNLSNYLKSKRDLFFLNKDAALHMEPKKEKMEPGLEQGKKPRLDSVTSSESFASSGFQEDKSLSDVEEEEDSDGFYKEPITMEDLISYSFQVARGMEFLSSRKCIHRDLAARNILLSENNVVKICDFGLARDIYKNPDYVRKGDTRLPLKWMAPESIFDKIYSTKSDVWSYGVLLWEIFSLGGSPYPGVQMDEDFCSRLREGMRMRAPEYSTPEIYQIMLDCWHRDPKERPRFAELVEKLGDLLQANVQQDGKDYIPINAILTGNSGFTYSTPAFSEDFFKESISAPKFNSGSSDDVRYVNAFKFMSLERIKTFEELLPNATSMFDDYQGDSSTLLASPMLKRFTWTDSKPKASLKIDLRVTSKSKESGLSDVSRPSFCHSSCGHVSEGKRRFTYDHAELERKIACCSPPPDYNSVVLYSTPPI
Chain of Mitogen-activated protein kinase 14 (Q16539 whole entry): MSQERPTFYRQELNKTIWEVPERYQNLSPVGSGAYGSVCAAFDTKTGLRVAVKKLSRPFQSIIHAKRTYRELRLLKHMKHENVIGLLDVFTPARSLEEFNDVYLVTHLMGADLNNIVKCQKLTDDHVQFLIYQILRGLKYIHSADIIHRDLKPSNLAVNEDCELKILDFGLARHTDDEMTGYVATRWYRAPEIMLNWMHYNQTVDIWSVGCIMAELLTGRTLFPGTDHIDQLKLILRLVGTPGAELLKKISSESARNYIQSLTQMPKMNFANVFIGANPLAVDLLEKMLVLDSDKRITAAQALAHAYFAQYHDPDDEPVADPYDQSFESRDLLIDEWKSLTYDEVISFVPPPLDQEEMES
Chain of Mitogen-activated protein kinase 8 (P45983 whole entry, canonical isoform): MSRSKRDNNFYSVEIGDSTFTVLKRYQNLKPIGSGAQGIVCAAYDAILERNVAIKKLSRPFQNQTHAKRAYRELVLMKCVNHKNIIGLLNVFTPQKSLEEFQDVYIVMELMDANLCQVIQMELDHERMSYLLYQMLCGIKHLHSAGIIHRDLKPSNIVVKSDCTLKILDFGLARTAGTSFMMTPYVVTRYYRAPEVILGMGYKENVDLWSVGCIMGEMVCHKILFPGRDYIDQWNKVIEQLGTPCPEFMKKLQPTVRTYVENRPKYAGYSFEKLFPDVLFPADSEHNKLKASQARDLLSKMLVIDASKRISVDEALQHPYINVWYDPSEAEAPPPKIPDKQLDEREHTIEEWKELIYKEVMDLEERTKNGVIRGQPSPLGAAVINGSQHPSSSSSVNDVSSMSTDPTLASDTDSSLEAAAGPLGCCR
Chain of Activated CDC42 kinase 1 (Q07912 whole entry): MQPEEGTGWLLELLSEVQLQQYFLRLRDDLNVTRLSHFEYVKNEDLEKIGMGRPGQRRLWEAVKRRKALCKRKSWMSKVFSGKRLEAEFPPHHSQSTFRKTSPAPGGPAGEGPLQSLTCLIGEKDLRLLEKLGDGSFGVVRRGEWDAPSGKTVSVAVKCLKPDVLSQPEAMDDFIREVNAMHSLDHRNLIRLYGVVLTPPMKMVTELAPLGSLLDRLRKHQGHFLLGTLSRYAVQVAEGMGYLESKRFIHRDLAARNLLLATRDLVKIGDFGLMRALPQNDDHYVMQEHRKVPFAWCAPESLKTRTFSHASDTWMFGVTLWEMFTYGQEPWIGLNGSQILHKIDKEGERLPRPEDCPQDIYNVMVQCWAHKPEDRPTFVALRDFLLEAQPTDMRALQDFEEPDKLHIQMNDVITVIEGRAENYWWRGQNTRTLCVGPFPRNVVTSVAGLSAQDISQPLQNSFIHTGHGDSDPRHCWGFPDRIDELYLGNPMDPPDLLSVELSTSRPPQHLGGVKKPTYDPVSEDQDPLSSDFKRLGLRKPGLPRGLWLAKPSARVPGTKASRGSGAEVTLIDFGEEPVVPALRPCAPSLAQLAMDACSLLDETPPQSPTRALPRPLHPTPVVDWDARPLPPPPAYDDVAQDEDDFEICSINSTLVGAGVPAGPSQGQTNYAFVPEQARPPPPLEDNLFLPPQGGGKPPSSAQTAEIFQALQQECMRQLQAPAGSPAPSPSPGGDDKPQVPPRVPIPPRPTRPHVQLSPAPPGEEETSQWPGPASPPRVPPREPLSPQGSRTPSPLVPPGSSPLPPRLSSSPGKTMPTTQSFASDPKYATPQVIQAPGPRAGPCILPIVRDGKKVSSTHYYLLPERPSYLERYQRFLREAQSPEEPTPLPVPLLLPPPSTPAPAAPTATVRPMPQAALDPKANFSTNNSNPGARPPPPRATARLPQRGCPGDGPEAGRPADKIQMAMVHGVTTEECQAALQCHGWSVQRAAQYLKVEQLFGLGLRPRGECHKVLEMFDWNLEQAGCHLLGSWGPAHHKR
Chain of Aurora kinase B (Q96GD4 whole entry): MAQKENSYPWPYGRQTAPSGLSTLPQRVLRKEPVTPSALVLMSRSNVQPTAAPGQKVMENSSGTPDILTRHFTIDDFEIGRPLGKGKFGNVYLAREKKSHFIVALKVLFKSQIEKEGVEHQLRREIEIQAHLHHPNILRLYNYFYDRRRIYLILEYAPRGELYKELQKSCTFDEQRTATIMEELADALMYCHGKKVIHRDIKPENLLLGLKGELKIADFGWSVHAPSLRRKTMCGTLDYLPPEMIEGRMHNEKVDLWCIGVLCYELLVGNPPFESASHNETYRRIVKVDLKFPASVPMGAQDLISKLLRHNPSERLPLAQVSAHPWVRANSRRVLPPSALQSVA

Row | SMILES | IC50 (Caspase-3) | IC50 [1] | IC50 (Orexin receptor type 2) | IC50 (CHO-K1) | Ki (Aurora kinase A) | Ki [2] | Ki (Activated CDC42 kinase 1) | Ki (Aurora kinase B) | Ki [3] | Ki [4] | Ki [5] | Ki [6]
1 | Cc1ccnc2ccc(-c3nc4ccccc4o3)cc12 | 5.31 µM (active) | 2.2 µM (active) | > 50 µM (inactive) | > 66.2 µM (inactive) | – | – | – | – | – | – | – | –
2 | O=C(NCCc1cccs1)N1CC=C(c2c[nH]c3ncccc23)CC1 | – | – | – | – | > 1.58 µM (inactive) | > 2.51 µM (inactive) | > 3.98 µM (inactive) | > 3.98 µM (inactive) | > 3.98 µM (inactive) | > 3.98 µM (inactive) | 3.98 µM (active) | 1.58 µM (active)
